Assays:
Assay type in all cases: functional
[1] = tested on: Prevotella intermedia; test: Antimicrobial activity against Prevotella intermedia by agar dilution method in presence of 5% laked sheep blood
[2] = tested on: Porphyromonas gingivalis; test: Antimicrobial activity against Porphyromonas gingivalis by agar dilution method in presence of 5% laked sheep blood
[3] = tested on: Odoribacter splanchnicus; test: Antimicrobial activity against Odoribacter splanchnicus by agar dilution method in presence of 5% laked sheep blood
[4] = tested on: Bacteroides caccae; test: Antimicrobial activity against Bacteroides caccae by agar dilution method in presence of 5% laked sheep blood
[5] = tested on: Desulfovibrio desulfuricans; test: Antimicrobial activity against Desulfovibrio desulfuricans by agar dilution method in presence of 5% laked sheep blood
[6] = tested on: Clostridium perfringens; test: Antimicrobial activity against Clostridium perfringens ATCC 13124 by agar dilution method in presence of 5% laked sheep blood
[7] = tested on: Porphyromonas uenonis; test: Antimicrobial activity against Porphyromonas uenonis by agar dilution method in presence of 5% laked sheep blood
[8] = tested on: Prevotella melaninogenica; test: Antimicrobial activity against Prevotella melaninogenica JCM 6325 by agar dilution method in presence of 5% laked sheep blood; conditions: ATCC 25845

C[C@@H](O)[C@H]1C(=O)N2C(C(=O)O)=C(S[C@@H]3CN[C@H](C(=O)N(C)C)C3)[C@H](C)[C@H]12 [MEROPENEM]
MIC50 [1]: 0.06 µg/mL
MIC90 [1]: 0.125 µg/mL
MIC50 [2]: ≤ 0.015 µg/mL
MIC90 [2]: 0.03 µg/mL
MIC50 [3]: 0.25 µg/mL
MIC90 [3]: 4 µg/mL
MIC50 [4]: 0.25 µg/mL
MIC90 [4]: 4 µg/mL
MIC50 [5]: 0.06 µg/mL
MIC90 [5]: 0.125 µg/mL
MIC [6]: ≤ 0.015 µg/mL
MIC50 [7]: ≤ 0.015 µg/mL
MIC90 [7]: 0.03 µg/mL
MIC [8]: 0.125 µg/mL

Cc1ncc([N+](=O)[O-])n1CCO [METRONIDAZOLE]
MIC50 [1]: 0.5 µg/mL
MIC90 [1]: 0.5 µg/mL
MIC50 [2]: 0.06 µg/mL
MIC90 [2]: 0.25 µg/mL
MIC50 [3]: 0.5 µg/mL
MIC90 [3]: 1 µg/mL
MIC50 [4]: 0.5 µg/mL
MIC90 [4]: 1 µg/mL
MIC50 [5]: 0.125 µg/mL
MIC90 [5]: 0.25 µg/mL
MIC [6]: 1 µg/mL
MIC50 [7]: 0.06 µg/mL
MIC90 [7]: 0.25 µg/mL
MIC [8]: 1 µg/mL

C[C@@H](O)[C@H]1C(=O)N2C(C(=O)O)=C(S[C@H]3C[C@@H](C(=O)N4CC[C@H](NC(=O)CNC(=N)N)C4)N(C)C3)[C@H](C)[C@H]12 [TOMOPENEM]
MIC50 [1]: 0.06 µg/mL
MIC90 [1]: 0.125 µg/mL
MIC50 [2]: 0.03 µg/mL
MIC90 [2]: 0.06 µg/mL
MIC50 [3]: 0.5 µg/mL
MIC90 [3]: 4 µg/mL
MIC50 [4]: 0.5 µg/mL
MIC90 [4]: 4 µg/mL
MIC50 [5]: 0.125 µg/mL
MIC90 [5]: 0.5 µg/mL
MIC [6]: 0.03 µg/mL
MIC50 [7]: 0.03 µg/mL
MIC90 [7]: 0.06 µg/mL
MIC [8]: 0.125 µg/mL

C[C@@H](O)[C@H]1C(=O)N2C(C(=O)O)=C(S[C@@H]3CN[C@H](CNS(N)(=O)=O)C3)[C@H](C)[C@H]12 [DORIPENEM]
MIC50 [1]: 0.06 µg/mL
MIC90 [1]: 0.125 µg/mL
MIC50 [2]: 0.03 µg/mL
MIC90 [2]: 0.06 µg/mL
MIC50 [3]: 0.5 µg/mL
MIC90 [3]: 4 µg/mL
MIC50 [4]: 0.5 µg/mL
MIC90 [4]: 4 µg/mL
MIC50 [5]: 0.125 µg/mL
MIC90 [5]: 0.25 µg/mL
MIC [6]: 0.03 µg/mL
MIC50 [7]: 0.03 µg/mL
MIC90 [7]: 0.06 µg/mL
MIC [8]: 0.125 µg/mL

CC(=N)N1CC[C@H](SC2=C(C(=O)O)N3C(=O)[C@H]([C@@H](C)O)[C@H]3C2)C1
MIC50 [1]: 0.06 µg/mL
MIC90 [1]: 0.25 µg/mL
MIC50 [2]: 0.06 µg/mL
MIC90 [2]: 0.06 µg/mL
MIC50 [3]: 1 µg/mL
MIC90 [3]: 4 µg/mL
MIC50 [4]: 1 µg/mL
MIC90 [4]: 4 µg/mL
MIC50 [5]: 0.5 µg/mL
MIC90 [5]: 1 µg/mL
MIC [6]: 0.03 µg/mL
MIC50 [7]: 0.06 µg/mL
MIC90 [7]: 0.06 µg/mL
MIC [8]: 0.06 µg/mL

Reference: ChEMBL document CHEMBL1275576, “In vitro activity of tomopenem (CS-023/RO4908463) against anaerobic bacteria” (Antimicrob Agents Chemother, 2009)
